The target in assay [1] is T1, GDP-loaded K-Ras (1-169) G12D, C51S, C80L, C118S (Homo sapiens, UniProt P01116, C118S/C51S/C80L/G12D).
T1 construct: GDP-loaded K-Ras (1-169) G12D, C51S, C80L, C118S
Nature of the assay: K-Ras G12D(GDP) cross-linking assay (conjugate formation, TOF mass spectrometry). It is filed as binding. More on the design: key: 0: No observed x-linking; +: 0 < x ≤ 20; ++: 20 < x ≤ 40; +++: 40 < x ≤ 100. The following applies: Table 5; percent covalently modified K-Ras by MS; room temperature; typical compound conc. 2, 10, 25 μM, endpoints 1 and 24 h. The protocol:
(§1) Protocol: K-Ras G12D(GDP) Cross-Linking Assay
(§2) Note: while the following protocol outlines the procedure for K-Ras G12D(GDP), a person of skill in the art may substitute other Ras proteins, and may also substitute a non-hydrolyzable GTP analog for GDP to study GTP bound Ras protein.
(§3) GDP-loaded K-Ras (1-169) G12D, C51S, C80L, C118S and GDP-loaded K-Ras (1-169) C51S, C80L, C118S were adjusted to 50 μM in K-Ras assay buffer (12.5 mM HEPES, 75 mM NaCl and 1 mM MgCl2 at pH 7.4). A 5 μL aliquot of each protein solution was added to each well of a 96-well microplate containing 40 μL of assay buffer. Initial compound stocks were prepared in DMSO at 100 times their final assay concentration. Compounds were then diluted 10-fold into K-Ras assay buffer to 10 times their final concentration. A 5 μL aliquot of each diluted compound solution was added to each protein solution in the 96-well microplate to initiate the reaction, which then proceeded at room temperature. Typical final compound concentrations were 2, 10, and 25 μM. At each time point, the reactions were analyzed immediately or quenched with 5 μL of a 5% formic acid solution and kept at 4° C. until analysis. Typical assay endpoints were 1 and 24 h.
(§4) Data collection took place on an Agilent 6230 TOF Mass Spectrometer. Complete reactions were injected onto a C4 reverse-phase column to separate protein from buffer components prior to entering the mass spectrometer. The proteins were eluted from the column by increasing acetonitrile fraction in the mobile phase and fed directly into the mass analyzer. Initial analysis of raw data took place in Agilent MassHunter BioConfirm software and consisted of deconvolution of multiple protein charge states with the maximum entropy algorithm, with a mass step of 1 Da. The heights of all deconvoluted protein masses were exported for further data analysis. The percent modification of each protein was then determined by calculating the peak height of the covalently modified K-Ras species as a percentage of the sum total of K-Ras protein peak height.

Assay [2] deals with T2, GDP-loaded K-Ras (1-169) C51S, C80L, C118S (Homo sapiens, UniProt P01116, C118S/C51S/C80L).
T2 construct: GDP-loaded K-Ras (1-169) C51S, C80L, C118S
The assay is described as follows: K-Ras WT (GDP) cross-linking assay (conjugate formation, TOF mass spectrometry). It is filed as binding. Also on record: key: 0: No observed x-linking; +: 0 < x ≤ 20; ++: 20 < x ≤ 40; +++: 40 < x ≤ 100. The following applies: Table 5; percent covalently modified K-Ras by MS; room temperature; typical compound conc. 2, 10, 25 μM, endpoints 1 and 24 h. The procedure:
as §1, §2, §3, §4

Turning to `COC(=O)[C@@H]1CN1C(=O)N1CCN(c2nc(OC[C@@H]3CCCN3C)nc3c2CCN(c2cccc4cccc(C)c24)C3)C[C@@H]1CC#N` [Example 109, methyl (S)-1-((S)-2-(cyanomethyl)-4-(7-(8-methylnaphthalen-1-yl)-2-(((S)-1-methylpyrrolidin-2-yl)methoxy)-5,6,7,8-tetrahydropyrido[3,4-d]pyrimidin-4-yl)piperazine-1-carbonyl)aziridine-2-carboxylate], the “G12D x-linking (%)” value in assay [1] is “+ (0 < x ≤ 20)”. Moreover, the “WT x-linking (%)” value in assay [2] was “+ (0 < x ≤ 20)”.
Consider `COC1CC1N=C=NC1CCN(c2nc(OC[C@@H]3CCCN3C)nc3c2CCN(c2cccc4cccc(C)c24)C3)CC1` (some centres unmarked) [Example 151], for which the “G12D x-linking (%)” value in assay [1] is given as “+++ (40 < x ≤ 100)”. Also, the “WT x-linking (%)” value in assay [2] is listed as “+ (0 < x ≤ 20)”.
The corresponding values for `O=C([C@@H]1CN1)N1CCN2c3ncnc4cc(-c5c(O)cccc5F)c(Cl)c(c34)OC[C@@H]2C1` [Example 121] are 0 and 0.
In the same order, the values of `Cc1ccc2[nH]ncc2c1-c1cc2ncnc3c2c(c1Cl)OCC[C@@H]1CN(C(=O)[C@@H]2CN2)CCN31` [Example 123] are 0 and 0.
In the same order, the values of `CC(=O)N1C[C@H]1CN1CCN(c2nc(OC[C@@H]3CCCN3C)nc3c2CCN(c2cccc4cccc(C)c24)C3)C[C@@H]1CC#N` [Example 118, 2-((S)-1-(((R)-1-acetylaziridin-2-yl)methyl)-4-(7-(8-methylnaphthalen-1-yl)-2-(((S)-1-methylpyrrolidin-2-yl)methoxy)-5,6,7,8-tetrahydropyrido[3,4-d]pyrimidin-4-yl)piperazin-2-yl)acetonitrile] are “+ (0 < x ≤ 20)” and “+ (0 < x ≤ 20)”.
`COCC1(N=C=N[C@@H]2CCN(c3nc(OC[C@@H]4CCCN4C)nc4c3CCN(c3cccc5cccc(C)c35)C4)C[C@@H]2CC#N)CC1` [Example 153]: the “G12D x-linking (%)” value in assay [1] is reported as “++ (20 < x ≤ 40)”. The “WT x-linking (%)” value in assay [2] is listed as “+ (0 < x ≤ 20)”.
In the same order, the values of `Cc1cccc2cccc(N3CCc4c(nc(OC[C@@H]5CCCN5C)nc4N4CCN(C(=O)[C@@H]5CN5S(C)(=O)=O)[C@@H](CC#N)C4)C3)c12` (some centres unmarked) [Example 132] are “+ (0 < x ≤ 20)” and “+ (0 < x ≤ 20)”.
The corresponding values for `C#CCCN1CCC[C@H]1COc1nc2c(c(N3CCN(C(=O)[C@@H]4CN4)[C@@H](CC#N)C3)n1)CCN(c1cccc3cccc(C)c13)C2` [Example 117, 2-((S)-1-((S)-aziridine-2-carbonyl)-4-(2-(((S)-1-(but-3-yn-1-yl)pyrrolidin-2-yl)methoxy)-7-(8-methylnaphthalen-1-yl)-5,6,7,8-tetrahydropyrido[3,4-d]pyrimidin-4-yl)piperazin-2-yl)acetonitrile] are “+ (0 < x ≤ 20)” and 0.
`Cc1ccnc(C(C)C)c1-n1c(=O)nc(N2C[C@@H](C)N(C(=O)[C@H]3CN3)C[C@@H]2C)c2cc(F)c(-c3c(O)cccc3F)nc21` [Example 138]: the “G12D x-linking (%)” value in assay [1] stood at 0. Moreover, the “WT x-linking (%)” value in assay [2] is reported as 0.
In the case of `CN1CCC[C@H]1COc1nc2c(c(N3CCN(C(=O)[C@@H]4CN4)[C@@H](CC#N)C3)n1)CCN(c1cc(O)cc3ccccc13)C2` [Example 115], the “G12D x-linking (%)” value in assay [1] was “+ (0 < x ≤ 20)”. Further, in assay [2], the “WT x-linking (%)” value is 0.
Regarding `Cc1ccnc(C(C)C)c1-n1c(=O)nc(N2C[C@H](C)N(C(=O)[C@H]3CN3)C[C@H]2C)c2cc(F)c(-c3c(O)cccc3F)nc21` [Example 139], the “G12D x-linking (%)” value in assay [1] stood at 0. The “WT x-linking (%)” value in assay [2] came out at 0.
Regarding `Cc1cccc2cccc(N3CCc4c(nc(OC[C@@H]5CCCN5C)nc4N4CCN(C[C@H]5CN5)[C@@H](CC#N)C4)C3)c12` [Example 100, 2-((S)-1-(((R)-aziridin-2-yl)methyl)-4-(7-(8-methylnaphthalen-1-yl)-2-(((S)-1-methylpyrrolidin-2-yl)methoxy)-5,6,7,8-tetrahydropyrido[3,4-d]pyrimidin-4-yl)piperazin-2-yl)acetonitrile], the “G12D x-linking (%)” value in assay [1] is “+ (0 < x ≤ 20)”. The “WT x-linking (%)” value in assay [2] was “+ (0 < x ≤ 20)”.
In the case of `Cc1cccc2cccc(N3CCc4c(nc(OC[C@@H]5CCCN5C)nc4N4CC[C@H](NC(=O)[C@H]5CN5)[C@@H](CC#N)C4)C3)c12` [Example 126], the “G12D x-linking (%)” value in assay [1] is reported as “+ (0 < x ≤ 20)”. For the same compound, the “WT x-linking (%)” value in assay [2] is recorded as “+ (0 < x ≤ 20)”.
With `CC(=O)N1C[C@@H]1C(=O)N1CCN(c2nc(OC[C@@H]3CCCN3C)nc3c2CCN(c2cccc4cccc(C)c24)C3)C[C@@H]1CC#N` [Example 98, 2-((S)-1-((R)-1-acetylaziridine-2-carbonyl)-4-(7-(8-methylnaphthalen-1-yl)-2-(((S)-1-methylpyrrolidin-2-yl)methoxy)-5,6,7,8-tetrahydropyrido[3,4-d]pyrimidin-4-yl)piperazin-2-yl)acetonitrile], the “G12D x-linking (%)” value in assay [1] is recorded as “+ (0 < x ≤ 20)”. For the same compound, the “WT x-linking (%)” value in assay [2] was determined as 0.
The corresponding values for `Cc1ccnc(C(C)C)c1-n1c(=O)nc(N2C[C@@H](C)N(C(=O)[C@@H]3CN3)C[C@@H]2C)c2cc(F)c(-c3c(O)cccc3F)nc21` [Example 143] are 0 and 0.
The corresponding values for `Cc1cccc2cccc(N3CCc4c(nc(OC[C@@H]5CCCN5C)nc4N4CCN(C[C@@H]5CN5)[C@@H](CC#N)C4)C3)c12` [Example 101, 2-((S)-1-(((S)-aziridin-2-yl)methyl)-4-(7-(8-methylnaphthalen-1-yl)-2-(((S)-1-methylpyrrolidin-2-yl)methoxy)-5,6,7,8-tetrahydropyrido[3,4-d]pyrimidin-4-yl)piperazin-2-yl)acetonitrile] are “+ (0 < x ≤ 20)” and “+ (0 < x ≤ 20)”.
`CO[C@H]1CCCC[C@H]1N=C=NC1CCN(c2nc(OC[C@@H]3CCCN3C)nc3c2CCN(c2cccc4cccc(C)c24)C3)CC1` [Example 148]: the “G12D x-linking (%)” value in assay [1] was “+ (0 < x ≤ 20)”. Besides, the “WT x-linking (%)” value in assay [2] is reported as “+ (0 < x ≤ 20)”.
Consider `COc1ccccc1CN=C=N[C@H]1C[C@H](Nc2nc(OC[C@@H]3CCCN3C)nc3c2CCN(c2cccc4cccc(C)c24)C3)C1` [Example 104, N-((1R,3S)-3-((((2-methoxybenzyl)imino)methylene)amino)cyclobutyl)-7-(8-methylnaphthalen-1-yl)-2-(((S)-1-methylpyrrolidin-2-yl)methoxy)-5,6,7,8-tetrahydropyrido[3,4-d]pyrimidin-4-amine], for which the “G12D x-linking (%)” value in assay [1] was “+ (0 < x ≤ 20)”. In assay [2], the “WT x-linking (%)” value is “+ (0 < x ≤ 20)”.
Regarding `COCCN1C[C@H]1C(=O)N1CCN(c2nc(OC[C@@H]3CCCN3C)nc3c2CCN(c2cccc4cccc(C)c24)C3)C[C@@H]1CC#N` (stereo partly drawn) [Example 106, 2-((S)-1-((S)-1-(2-methoxyethyl)aziridine-2-carbonyl)-4-(7-(8-methylnaphthalen-1-yl)-2-(((S)-1-methylpyrrolidin-2-yl)methoxy)-5,6,7,8-tetrahydropyrido[3,4-d]pyrimidin-4-yl)piperazin-2-yl)acetonitrile], in assay [1], the “G12D x-linking (%)” value is reported as “+ (0 < x ≤ 20)”. Also, the “WT x-linking (%)” value in assay [2] is on record as “+ (0 < x ≤ 20)”.
For `Cc1ccc2[nH]ncc2c1N1CCc2c(nc(OC[C@@H]3CCCN3C)nc2N2CCN(C(=O)[C@@H]3CN3)[C@@H](CC#N)C2)C1` [Example 111, 2-((S)-1-((S)-aziridine-2-carbonyl)-4-(7-(5-methyl-1H-indazol-4-yl)-2-(((S)-1-methylpyrrolidin-2-yl)methoxy)-5,6,7,8-tetrahydropyrido[3,4-d]pyrimidin-4-yl)piperazin-2-yl)acetonitrile], the “G12D x-linking (%)” value in assay [1] is reported as “+ (0 < x ≤ 20)”. In assay [2], the “WT x-linking (%)” value is recorded as 0.
In the case of `CO[C@@H]1CCCC[C@@H]1N=C=NC1CCN(c2nc(OC[C@@H]3CCCN3C)nc3c2CCN(c2cccc4cccc(C)c24)C3)CC1` [Example 146], the “G12D x-linking (%)” value in assay [1] is reported as “+ (0 < x ≤ 20)”. Further, the “WT x-linking (%)” value in assay [2] is reported as “+ (0 < x ≤ 20)”.
Regarding `CN1CCC[C@H]1COc1nc2c(c(N3CCN(C(=O)[C@H]4CN4)[C@@H](CC#N)C3)n1)CCN(c1cc(O)cc3ccccc13)C2` [Example 114], the “G12D x-linking (%)” value in assay [1] was “++ (20 < x ≤ 40)”. In addition, the “WT x-linking (%)” value in assay [2] worked out at 0.
